Source: US20250389728A1, “NOVEL CLASS OF TRIOXANE-BASED MS-CLEAVABLE CROSS-LINKERS TO ADVANCE PROTEIN-PROTEIN INTERACTION STUDIES USING CROSS-LINKING MASS SPECTROMETRY” (The Regents of the University of California, priority 2024, published 2025)

Assays:
[1] = biological target: BSA (Bos taurus, UniProt P02769); assay: TSTO cross-linking of BSA, LC-MSn
Protocol: The reaction was carried out for 1 h at RT, followed by quenching with ammonium bicarbonate. […] Cross-linked proteins were then digested in 8M urea buffer using LysC for 4 h at 37° C., followed by trypsin digestion at 37° C. overnight after diluting urea concentration to <1.5 M. The resulting peptide mixtures were extracted and desalted using C18 tips (Agilent) prior to MS analyses.
(§1) LC-MS^n analysis. LC-MS^n analysis of cross-linked peptides was performed using an UltiMate 3000 UPLC (Thermo Fisher Scientific) liquid chromatograph coupled on-line to an Orbitrap Fusion Lumos mass spectrometer (Thermo Fisher Scientific). Peptides were separated by reverse-phase on a 50 cm×75 μm I.D. Acclaim® PepMap RSLC column using gradients of 4% to 25% acetonitrile at a flow rate of 300 nL/min (solvent A: 100% H2O, 0.1% formic acid; solvent B: 100% acetonitrile, 0.1% formic acid) prior to MS^n analysis. For each MS^n acquisition, duty cycles consisted of one full Fourier transform scan mass spectrum (375-1500 m/z, resolution of 60,000 at m/z 400) followed by data-dependent MS^2 and MS^3 acquired at top speed in the Orbitrap and linear ion trap, respectively. Ions detected in MS^1 with 4+ or greater charge were selected and subjected to CID fragmentation (NCE 23%) in MS^2 and resulting ions were detected in the Orbitrap (resolution 30,000). Ions observed in MS^2 spectra with charge 2+ or greater were selected and fragmented in MS^3 using CID (NCE 35%) and detected in the linear ion trap in ‘Rapid’ mode. Ions selected for MS^3 were either based on abundance (top 4 or 5 most intense ions in MS^2) or targeted based on doublets with mass difference pairs (Δ=18.02 Da) corresponding to cross-linker remnant moiety water loss. For 26S proteasome cross-links, each acquisition was 200 min and ion selection for MS^3 was based on top intensity. For SEC-separated F24 fractions, the entire HpHt fraction was injected; for F26 fractions half of the HpHt fraction was injected for each LC-MS^n analysis. Each acquisition was 120 or 150 min, and both top intensity and mass difference-targeted methods were used for selecting ions for MS^3 analysis.
Spectrometric data were extracted from .raw files using PAVA. Extracted MS^3 spectra were subjected to protein database searching via Batch-Tag within a developmental version of Protein Prospector (v. 6.3.5, University of California, San Francisco) against a randomly concatenated SwissProt database consisting of 20,418 human proteins and their corresponding decoys. Mass tolerances for parent ions and fragment ions were set as ±15 ppm and 0.6 Da, respectively. Trypsin was set as the enzyme with three maximum missed cleavages allowed. Cysteine carbamidomethylation was selected as a constant modification, while protein N-terminal acetylation, methionine oxidation, and N-terminal conversion of glutamine to pyroglutamic acid were selected as variable modifications.

[2] = tested on: human 26S proteasomes; assay: TSTO cross-linking of affinity-purified 26S proteasomes, LC-MSn
Protocol: Cross-linked proteins were then digested in 8M urea buffer using LysC for 4 h at 37° C., followed by trypsin digestion at 37° C. overnight after diluting urea concentration to <1.5 M. The resulting peptide mixtures were extracted and desalted using C18 tips (Agilent) prior to MS analyses.
as §1, with “MS^3 analysis. […]” for “MS^3 analysis.”

Sequence of BSA (P02769 25-607): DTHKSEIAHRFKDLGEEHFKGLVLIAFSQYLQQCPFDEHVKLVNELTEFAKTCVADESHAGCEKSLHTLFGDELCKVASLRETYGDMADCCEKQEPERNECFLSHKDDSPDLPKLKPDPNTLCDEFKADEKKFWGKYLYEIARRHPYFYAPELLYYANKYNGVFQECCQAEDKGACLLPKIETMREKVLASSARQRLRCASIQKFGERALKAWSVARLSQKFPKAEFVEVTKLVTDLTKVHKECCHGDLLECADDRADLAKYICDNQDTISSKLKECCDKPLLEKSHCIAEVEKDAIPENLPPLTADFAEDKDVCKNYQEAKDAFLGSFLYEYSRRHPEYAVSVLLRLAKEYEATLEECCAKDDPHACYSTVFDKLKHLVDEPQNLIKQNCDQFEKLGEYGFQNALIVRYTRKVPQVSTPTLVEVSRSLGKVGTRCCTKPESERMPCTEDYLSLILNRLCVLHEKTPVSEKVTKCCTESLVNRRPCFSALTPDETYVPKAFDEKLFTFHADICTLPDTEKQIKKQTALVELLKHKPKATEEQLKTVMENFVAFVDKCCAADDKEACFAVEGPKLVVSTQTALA

Q: `O=C(CCCC1OC(CCCC(=O)ON2C(=O)CCC2=O)OC(CCCC(=O)ON2C(=O)CCC2=O)O1)ON1C(=O)CCC1=O` (centres unmarked) [TSTO, Tris(2,5-dioxopyrrolidin-1-yl) 4,4′,4″-(1,3,5-trioxane-2,4,6-triyl)tributanoate] was tested. Which “redundant cross-linked spectra matches (CSMs)” value ([1]; 1 mM TSTO, pH 7.4 PBS, 1 h RT) did it give?
A: Its value is 823.

Q: What about the “unique CSMs” value ([1]; 1 mM TSTO, pH 7.4 PBS, 1 h RT) of the same compound?
A: The value was 167.

Q: And the “tri-links share of total unique CSMs” value ([1]; 45/167)?
A: Its value is roughly 27%.

Q: What about the “overall mapped distance median (Cα-Cα)” value ([1]; mapped to PDB:4F5S) of the same compound?
A: Its value is 21.1 Å.

Q: And the “satisfaction rate of cross-links ≤35 Å” value ([1]; mapped to PDB:4F5S)?
A: Its value is 90%.

Q: What about the “share of unique CSMs that were tri-links” value ([2]; 0.75 mM TSTO on-bead) of the same compound?
A: The value was 41.3%.

Q: What about the “total unique CSMs” value ([2]; 0.75 mM TSTO on-bead, PBS pH 7.5, 1 h) of the same compound?
A: The value was 808.

Q: And the “satisfaction rates (≤35 Å) of mapped tri-links and bi-links” value ([2]; mapped to PDB: 7QY7)?
A: Its value is roughly 90%.
